Test results from publication PMC8063472, “Pharmacokinetics of five phthalides in volatile oil of Ligusticum sinense Oliv.cv. Chaxiong, and comparison study on physicochemistry and pharmacokinetics after being formulated into solid dispersion and inclusion compound” (BMC Complementary Medicine and Therapies, 2021).

assay: not given; design: method as in PMID 18039808; settings: cited from earlier work

SMILES | Oral bioavailability [%]
CCC/C=C1\OC(=O)C2=C1CCC=C2 [ZL, Z-ligustilide] | 2.6

assay: In vitro dissolution, paddle method, pH 5.8 phosphate buffer; type: physicochemical; settings: not given
Protocol: Dissolution studies were performed according to the USP XXI method 2 (paddle method) at 37 ± 0.5 °C at 50 rpm. 900 ml of dissolution medium were used as standard volume. Dissolution samples (1 mL) were withdrawn at the specified times of 15, 30, 45, 60, 90, 120 min from Dissolution cups, and 1 ml of dissolution medium was replenished in the same time. Samples were filtered through a 0.45 μm nylon disc filter and were measured absorbance at 230 nm by HPLC [11].

SMILES | solubility in pH 5.8 PBS
CCC/C=C1\OC(=O)C2=C1CCC=C2 [ZL, Z-ligustilide] | poor solubility
CCC/C=C1\OC(=O)c2ccccc21 [BP] | poor solubility

assay: Pharmacokinetic study in rats (plasma LC-MS/MS) after iv or oral VOC, oral VOC-P188 or oral VOC-β-CD; type: in vivo, Sprague Dawley rats; settings: VOC iv 30 mg/kg, rat plasma, n = 6
Protocol: The intravenous injection solution was prepared by dissolving 0.15 g of VOC in 25 ml water containing 3 ml 10% Tween-80 as solubilizer. The oral solution was prepared by dissolving 0.35 g of VOC in 25 ml normal saline containing 3 ml 10% Tween-80 as solubilizer. The VOC-P188 solution was prepared by mixing VOC-P188 5 g in 25 ml water with magnetic stirring apparatus. The VOC-β-CD solution was prepared by mixing VOC-β-CD 3.5 g in 25 ml water with magnetic stirring apparatus.
Twenty-four male SD rats (220 ~ 250 g) were randomly divided into four groups, 6 in each group. After fasting for 12 h before administration, the rats in group 1 were given VOC by tail vein injection at a dose of 30 mg/Kg, the rats at second group were oral administration of VOC solution, the dosage was 120 mg/Kg based on the mass of VOC. The rats at groups 3 and 4 were given VOC-P188 and VOC-β-CD, respectively.
Blood samples (0.3 ml) were collected from the eyes at 0.08, 0.17, 0.33, 0.5, 1, 1.5, 2, 4, 6, 8, 12 and 24 h after administration, and they were immediately transferred into a heparinized Eppendorf (EP) tube. The blood samples were then centrifuged at 13,000 r/min for 10 min. The plasma samples were stored at − 80 °C for later analysis.
The thawed plasma sample (0.1 ml) was transferred to another EP tube and 20 μl of DL, 50 μl of 2% formic acid and 500 μl of methanol were added. The mixture was vortexed for 2 min, and centrifuged at 13000 r/min for 10 min. The supernatant was transferred into a clean EP tube, and evaporated to dryness under a stream of nitrogen at 40 °C. The residue was dissolved in 100 μl of methanol. The supernatant was injected into the HPLC system.
An HPLC system consisting of a solvent-delivery system LC-30 AD, an autosampler SIL-30 AC, a column oven CTO-30 AC, a solvent degasser DGU-20A3, and a controller CBM-20A from […] was used in the study. Separation was conducted using a Shim-pack GIST C18-AQ HP column (2.1 mm × 100 mm, 3 μm). The column oven was maintained at 35 °C. The mobile phase was 0.1% formic acid in water as mobile phase A and acetonitrile as mobile phase B. The linear gradient elution program was set according to preliminary tests: 45–60% B, 0–2 min; 60–65% B, 2–6 min; 65–95% B, 6–7 min; 95–45% B, 7–9 min and 45% B, 9–10 min, with the flow rate kept at 0.3 ml/min. The injection volume was set at 2 μl.
The MS analysis was performed on a 4500 QTRAP™ system from Applied Biosystems (AB Sciex) equipped with Turbo V sources and Turbo Ion Spray™ (TIS) interface. Electrospray ionization was performed in positive mode. Ion source: electrospray ion source (ESI source); detection method: multiple reaction monitoring (MRM); ion source temperature: 500 °C; desolvent gas temperature: 550 °C; desolvent gas flow rate: 800 l/h. The detection ion pair, retention time, declustering voltage and collision energy of each index component and internal standard were shown in Table 2.
The plasma SA, NBP, NOL, ZL and BP concentrations were evaluated using the equation from the standard curves that were run with each batch of samples. The plasma concentration-time data were analyzed with the Drug and Statistics 2.0 software package to determine the pharmacokinetic parameters. The observed Cmax value was obtained from the observed data and the observed AUC0 → t value was calculated using the trapezoidal rule. The absolute bioavailability of VOC and the relative bioavailability of VOC-P188 and VOC-β-CD were calculated, the formula for calculating absolute bioavailability (F1) and relative bioavailability (F2): F1=AUCpo×Div/AUCiv×Dpo×100% […]
Where AUC is the area under the temporal curve of blood drug concentration (μg/l*h), D is administration dosage (mg/kg); the subscripts iv and po are injection and oral administration, respectively; the subscript R is reference drug (VOC); the subscript T is solid dispersion or inclusion compound.

SMILES | t1/2α [h]
CCC/C=C1\OC(=O)C2=C1CCC=C2 [ZL, Z-ligustilide] | 0.04 ± 0.04
CCC/C=C1\OC(=O)c2ccccc21 [BP] | 0.04 ± 0.04

same assay, conditions: VOC po 120 mg/kg, rat plasma, n = 6

SMILES | t1/2α [h]
CCC/C=C1\OC(=O)C2=C1CCC=C2 [ZL, Z-ligustilide] | 0.82 ± 0.51
CCC/C=C1\OC(=O)c2ccccc21 [BP] | 1.38 ± 1.02

same assay, conditions: VOC-P188 solid dispersion po vs VOC po, rats

SMILES | F2 (relative bioavailability) [%]
CCC/C=C1\OC(=O)C2=C1CCC=C2 [ZL, Z-ligustilide] | 163.35
CCC/C=C1\OC(=O)c2ccccc21 [BP] | 251.50

same assay, conditions: VOC-P188 solid dispersion po, rat plasma, n = 6

SMILES | t1/2α
CCC/C=C1\OC(=O)C2=C1CCC=C2 [ZL, Z-ligustilide] | 4.40 ± 4.10^* h
CCC/C=C1\OC(=O)c2ccccc21 [BP] | 2.72 ± 3.66 h

same assay, conditions: VOC-β-CD inclusion compound po vs VOC po, rats

SMILES | F2 (relative bioavailability) [%]
CCC/C=C1\OC(=O)C2=C1CCC=C2 [ZL, Z-ligustilide] | 224.54
CCC/C=C1\OC(=O)c2ccccc21 [BP] | 363.55

same assay, conditions: VOC-β-CD inclusion compound po, rat plasma, n = 6

SMILES | t1/2α
CCC/C=C1\OC(=O)C2=C1CCC=C2 [ZL, Z-ligustilide] | 4.72 ± 1.92^* h
CCC/C=C1\OC(=O)c2ccccc21 [BP] | 7.02 ± 5.42^* h

same assay, conditions: male, Sprague-Dawley, rat, plasma, iv, 30 mg/kg, VOC iv 30 mg/kg, rat plasma, n = 6

SMILES | AUC(0-t) [ng·h/mL]
CCC/C=C1\OC(=O)C2=C1CCC=C2 [ZL, Z-ligustilide] | 1240 ± 435
CCC/C=C1\OC(=O)c2ccccc21 [BP] | 198 ± 42.8

same assay, conditions: male, Sprague-Dawley, rat, plasma, iv, 30 mg/kg, VOC iv 30 mg/kg, rat plasma, n = 6; read-out: MRT0-t

SMILES | MRT last [h]
CCC/C=C1\OC(=O)C2=C1CCC=C2 [ZL, Z-ligustilide] | 0.45 ± 0.1
CCC/C=C1\OC(=O)c2ccccc21 [BP] | 1.28 ± 0.32

same assay, conditions: male, Sprague-Dawley, rat, plasma, iv, 30 mg/kg, VOC iv 30 mg/kg, rat plasma, n = 6; read-out: Tmax

SMILES | Tmax [h]
CCC/C=C1\OC(=O)C2=C1CCC=C2 [ZL, Z-ligustilide] | 0.083
CCC/C=C1\OC(=O)c2ccccc21 [BP] | 0.083

same assay, conditions: male, Sprague-Dawley, rat, plasma, iv, 30 mg/kg, VOC iv 30 mg/kg, rat plasma, n = 6; read-out: t1/2β (converted)

SMILES | half-life [h]
CCC/C=C1\OC(=O)C2=C1CCC=C2 [ZL, Z-ligustilide] | 0.55 ± 0.66
CCC/C=C1\OC(=O)c2ccccc21 [BP] | 0.7 ± 0.54

same assay, conditions: male, Sprague-Dawley, rat, plasma, iv, 30 mg/kg, VOC iv (tail vein) 30 mg/kg, rat plasma, n = 6

SMILES | Cmax [ng/mL]
CCC/C=C1\OC(=O)C2=C1CCC=C2 [ZL, Z-ligustilide] | 4530 ± 1450
CCC/C=C1\OC(=O)c2ccccc21 [BP] | 373 ± 155

same assay, conditions: male, Sprague-Dawley, rat, plasma, po, 120 mg/kg, VOC po 120 mg/kg, rat plasma, n = 6

SMILES | AUC(0-t) [ng·h/mL] | Cmax [ng/mL]
CCC/C=C1\OC(=O)C2=C1CCC=C2 [ZL, Z-ligustilide] | 504 ± 53.3 | 214 ± 76
CCC/C=C1\OC(=O)c2ccccc21 [BP] | 99.1 ± 23.3 | 43.7 ± 10.9

same assay, conditions: male, Sprague-Dawley, rat, plasma, po, 120 mg/kg, VOC po 120 mg/kg, rat plasma, n = 6; read-out: MRT0-t

SMILES | MRT last [h]
CCC/C=C1\OC(=O)C2=C1CCC=C2 [ZL, Z-ligustilide] | 3.94 ± 0.54
CCC/C=C1\OC(=O)c2ccccc21 [BP] | 3.46 ± 1.08

same assay, conditions: male, Sprague-Dawley, rat, plasma, po, 120 mg/kg, VOC po 120 mg/kg, rat plasma, n = 6; read-out: Tmax

SMILES | Tmax [h]
CCC/C=C1\OC(=O)C2=C1CCC=C2 [ZL, Z-ligustilide] | 0.22 ± 0.09
CCC/C=C1\OC(=O)c2ccccc21 [BP] | 0.5 ± 0.28

same assay, conditions: male, Sprague-Dawley, rat, plasma, po, 120 mg/kg, VOC po 120 mg/kg, rat plasma, n = 6; read-out: t1/2β (converted)

SMILES | half-life [h]
CCC/C=C1\OC(=O)C2=C1CCC=C2 [ZL, Z-ligustilide] | 5.48 ± 2.61
CCC/C=C1\OC(=O)c2ccccc21 [BP] | 3.74 ± 3.26

same assay, conditions: male, Sprague-Dawley, rat, plasma, po, 120 mg/kg, after oral administration of VOC, rats; read-out: Tmax (time of peak concentration)

SMILES | Tmax [h]
CCC/C=C1\OC(=O)c2ccccc21 [BP] | < 0.5

same assay, conditions: male, Sprague-Dawley, rat, plasma, po, VOC-P188 and VOC-β-CD po, rats; read-out: bioavailability in the two preparations

SMILES | bioavailability [%]
CCC/C=C1\OC(=O)C2=C1CCC=C2 [ZL, Z-ligustilide] | < 50
CCC/C=C1\OC(=O)c2ccccc21 [BP] | < 50

same assay, conditions: male, Sprague-Dawley, rat, plasma, po, VOC-P188 solid dispersion po, rat plasma, n = 6

SMILES | AUC(0-t) [ng·h/mL] | Cmax [ng/mL]
CCC/C=C1\OC(=O)C2=C1CCC=C2 [ZL, Z-ligustilide] | 801 ± 199 | 320 ± 286
CCC/C=C1\OC(=O)c2ccccc21 [BP] | 249 ± 24.5 | 40.3 ± 8.37

same assay, conditions: male, Sprague-Dawley, rat, plasma, po, VOC-P188 solid dispersion po, rat plasma, n = 6; read-out: MRT0-t

SMILES | MRT last [h]
CCC/C=C1\OC(=O)C2=C1CCC=C2 [ZL, Z-ligustilide] | 5.95 ± 0.49
CCC/C=C1\OC(=O)c2ccccc21 [BP] | 7.42 ± 0.6

same assay, conditions: male, Sprague-Dawley, rat, plasma, po, VOC-P188 solid dispersion po, rat plasma, n = 6; read-out: Tmax

SMILES | Tmax [h]
CCC/C=C1\OC(=O)C2=C1CCC=C2 [ZL, Z-ligustilide] | 0.49 ± 0.42
CCC/C=C1\OC(=O)c2ccccc21 [BP] | 0.42 ± 0.33

same assay, conditions: male, Sprague-Dawley, rat, plasma, po, VOC-P188 solid dispersion po, rat plasma, n = 6; read-out: t1/2β (converted)

SMILES | half-life [h]
CCC/C=C1\OC(=O)C2=C1CCC=C2 [ZL, Z-ligustilide] | 8.91 ± 5.25
CCC/C=C1\OC(=O)c2ccccc21 [BP] | 8.64 ± 2.44

same assay, conditions: male, Sprague-Dawley, rat, plasma, po, VOC-β-CD inclusion compound po, rat plasma, n = 6

SMILES | AUC(0-t) [ng·h/mL] | Cmax [ng/mL]
CCC/C=C1\OC(=O)C2=C1CCC=C2 [ZL, Z-ligustilide] | 883 ± 211 | 145 ± 24.8
CCC/C=C1\OC(=O)c2ccccc21 [BP] | 298 ± 31.7 | 38.8 ± 16

same assay, conditions: male, Sprague-Dawley, rat, plasma, po, VOC-β-CD inclusion compound po, rat plasma, n = 6; read-out: MRT0-t

SMILES | MRT last [h]
CCC/C=C1\OC(=O)C2=C1CCC=C2 [ZL, Z-ligustilide] | 7.31 ± 0.33
CCC/C=C1\OC(=O)c2ccccc21 [BP] | 8.45 ± 0.77

same assay, conditions: male, Sprague-Dawley, rat, plasma, po, VOC-β-CD inclusion compound po, rat plasma, n = 6; read-out: Tmax

SMILES | Tmax [h]
CCC/C=C1\OC(=O)C2=C1CCC=C2 [ZL, Z-ligustilide] | 0.4 ± 0.17
CCC/C=C1\OC(=O)c2ccccc21 [BP] | 0.35 ± 0.19

same assay, conditions: male, Sprague-Dawley, rat, plasma, po, VOC-β-CD inclusion compound po, rat plasma, n = 6; read-out: t1/2β (converted)

SMILES | half-life [h]
CCC/C=C1\OC(=O)C2=C1CCC=C2 [ZL, Z-ligustilide] | 5.96 ± 2.9
CCC/C=C1\OC(=O)c2ccccc21 [BP] | 19.6 ± 5.63

assay: Stability test of VOC-P188 and VOC-β-CD (temperature, illumination); type: physicochemical; settings: in VOC-P188, 60 °C for 10 days

SMILES | content decreased by [%]
CCC/C=C1\OC(=O)C2=C1CCC=C2 [ZL, Z-ligustilide] | 38.9

same assay, conditions: in VOC-β-CD, 60 °C for 10 days

SMILES | content decreased by [%]
CCC/C=C1\OC(=O)C2=C1CCC=C2 [ZL, Z-ligustilide] | 20.3
